Series [1] is described as follows: Maximum absorbance and emission wavelengths of the seminaphthofluorophore scaffolds. In kind it is physicochemical. The note with it: seminaphthofluorophore scaffold (without the diselenide moiety/moieties) of the compound; 10% DMSO, 100 mM phosphate buffer, pH 7.4.
Protocol: Initial absorbance measurements were performed on a Cary Eclipse™ 50 Bio UV-Vis spectrophotometer. Fluorescence measurements were performed on a Cary Eclipse™ fluorescence spectrophotometer (Agilent Technologies, Santa Clara, CA).
A short description of series [2]: Turn-on response of probe on reduction of the diselenide with dithiothreitol (DTT). The note with it: 10 μM probe. On the procedure:
To determine if determine if probe 1 would elicit a turn-on response, dithiothreitol (DTT) was used to reduce the diselenide into the selenolate. DTT is known to reduce both disulfides and diselenides. Excitation and emission spectra were obtained for a 10 μM solution of 1 in 0.3% DMSO, 0.2% NP-40 (nonyl phenoxypolyethoxylethanol), 1 mM EDTA, and 50 mM Tris buffer, pH 7.4, initially without DTT and then with an equimolar amount of DTT (FIG. 1).
To investigate the reactivity and optical responses of probe 1, an aqueous solution of 10 μM probe 1, 10 μM DTT in 0.3% DMSO, 0.2% NP-40, 1 mM EDTA and 50 mM Tris buffer, pH 7.4 was prepared. DTT is a powerful reducing agent for both diselenides and disulfides and might be expected to react with probe 1 by a mechanism similar to the TrxR1 enzyme. […] Excitation at 531 nm afforded emission with a λmax at 580 nm, as expected for the formation of compound 2, which was also monitored by HPLC-MS.

The next series concerns the target T1, TrxR1 from rat liver (Rattus norvegicus, UniProt O89049).
T1 construct: from tissue; host or cells: rat liver
T1 sequence (O89049 1-499): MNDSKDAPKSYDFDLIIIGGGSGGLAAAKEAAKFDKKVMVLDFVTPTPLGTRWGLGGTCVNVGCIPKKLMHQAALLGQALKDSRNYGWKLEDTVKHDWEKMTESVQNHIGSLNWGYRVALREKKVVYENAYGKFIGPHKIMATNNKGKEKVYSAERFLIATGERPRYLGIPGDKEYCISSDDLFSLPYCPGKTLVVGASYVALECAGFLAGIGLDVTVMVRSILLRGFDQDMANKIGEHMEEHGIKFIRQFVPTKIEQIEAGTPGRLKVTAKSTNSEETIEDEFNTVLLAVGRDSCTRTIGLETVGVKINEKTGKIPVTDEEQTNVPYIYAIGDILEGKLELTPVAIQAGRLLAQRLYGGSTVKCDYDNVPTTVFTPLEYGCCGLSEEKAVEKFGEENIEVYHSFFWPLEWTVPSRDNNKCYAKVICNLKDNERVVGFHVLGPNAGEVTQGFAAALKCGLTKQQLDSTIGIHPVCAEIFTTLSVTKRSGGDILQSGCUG
As to the kind of experiment: TrxR1 enzymatic assay and kinetic study (fluorescence increase, NADPH depletion). In kind it is biochemical. Here is the method:
Enzymatic assays were carried out using TrxR1 from rat liver in the presence of 20 μM probe 1, 10 mM EDTA, 0.2 mg/mL BSA, and 0.24 mM NADPH in phosphate buffer (100 mM, pH 7.4). This solution was pipetted into four different wells in a 96-well plate. 0.03, 0.06 and 0.12 units of TrxR1 were added to different reaction mixtures. Control experiments were set up by omitting either probe 1, NADPH or TrxR1 from the mixtures. After all the reagents had been mixed, the wells were immediately monitored for change in fluorescence (λex=531 nm; λem=580 nm) and NADPH absorbance (λabs,max 340 nm). TrxR1 activity was monitored via fluorescence emission increase of probe 1 (λex=531 nm; λem=580 nm) as well as the depletion of NADPH (λabs=340 nm) upon incubation. Reactions were monitored in black 96-well plates with clear bottoms using a fluorescence plate reader. NADPH and TrxR1 were both required for the conversion of probe 1 to compound 2 and the concomitant turn-on emission (FIG. 2). […] The proposed mechanism for the reaction of probe 1 in the presence of TrxR1 and NADPH is shown in Scheme 7. Nucleophilic attack of the diselenide occurs through the TrxR1 […] residue. The selenolate formed attacks the carbamate carbonyl, and an oxaselenolanone heterocycle and the fluorescent probe 2 are released.
Kinetic studies were carried out for six reaction mixtures with varying amounts (1-20 μM) of probe 1 over 20 min. Reaction mixtures were made with concentrations of: TrxR1 0.12 units, 100 mM phosphate buffer, pH 7.4; 10 mM EDTA, 0.2 mg/mL BSA and 0.24 mM NADPH. 1 was added at different concentrations in the reaction mixture: 20 μM, 10 μM, 5 μM, 3 μM, 1 μM and 0 μM. The reaction was monitored through the change in fluorescence (λex=531 nm; λem=580 nm) and a fluorescence vs time graph was plotted for each substrate concentration (FIG. 3). […] The fluorescence data also was plotted as a reaction rate vs substrate concentration graph (FIG. 4).

A short description of series [3]: Selectivity against other biological thiols and ions (fluorescence response). The following applies: 20 μM probe, 20 minutes; 100 μM Na2S, Na2SO3, Na2SO4, Na2S2O3, Hcy, Cys or 1 mM GSH; phosphate buffer pH 7.4. In kind it is biochemical. Here is the method: The selectivity of TrxR1 for probe 1 was evaluated against other biological thiols and ions. Probe 1, at a concentration of 20 μM, was incubated for 20 minutes with 0.12 units TrxR1, 100 μM Na2S, 100 μM Na2SO3, 100 μM Na2SO4, 100 μM Na2S2O3, 100 μM homocysteine (Hcy), 100 μM cysteine (Cys), or 1 mM glutathione (GSH) in 100 mM phosphate buffer, pH 7.4; 10 mM EDTA, 0.2 mg/mL BSA and 0.24 mM NADPH.

In another series the test system is A375 melanoma cell line. As to the kind of experiment: MTS cytotoxicity assay (CellTiter 96 Aqueous One Solution). In kind it is cell-based. The note with it: Homo sapiens, A-375, A375 cells. On the procedure:
(§1) MTS cytotoxicity assays for probe 1 were carried out using the CellTiter 96® Aqueous One Solution Cell Proliferation Assay (Promega Corporation, Madison, WI), with A375 and SK-MEL-5 melanoma cell lines. The following treatment groups were made:
(§2) The IC50 is the probe concentration required to kill 50% of the cells in the specified time period.
For orientation: Tetrazolium assays rely on reduction of a dye to a coloured formazan, in cell work by metabolically active cells.

Series [4] has as its system SK-MEL-5 melanoma cell line. The series is described as above. In kind it is cell-based. The note with it: Homo sapiens, SK-MEL-5 cells. On the procedure: as §1, §2
The mark [5] stands for this setting: equimolar DTT, 0.3% DMSO, 0.2% NP-40, 1 mM EDTA, 50 mM Tris buffer, pH 7.4.

In general, Km refers to the substrate concentration at which the rate is half of its maximum. The term IC50 denotes the concentration that gives 50% inhibition.

`COc1cccc2ccc3c(c12)Oc1cc(NC(=O)OCC[Se][Se]CCO)ccc1C31OC(=O)c2ccccc21` (stereo not drawn) [Probe 1]: the “λmax, abs (nm)” value in series [1] was 531 nm. Besides, in series [1], the “λmax, em (nm)” value amounted to 580 nm. The “Emission λmax after addition of DTT” value in series [2] (10 μM DTT, Tris buffer pH 7.4, excitation at 531 nm, formation of compound 2) was found to be 580 nm. The “Colour change of solution with DTT” value in series [2] (setting [5]) is “colorless to red”. For the same compound, in series [2] (setting [5]), the “Fluorescence turn-on response with DTT” value is “instantaneous turn-on response”. For the same compound, the “Time at which fluorescence intensity began to plateau” value on TrxR1 from rat liver (20 μM probe, 0.12 units TrxR, 0.24 mM NADPH, phosphate buffer pH 7.4, λex 531 nm, λem 580 nm) was 20 min. On TrxR1 from rat liver (20 μM probe, control omitting NADPH or TrxR1), the “Fluorescence in the absence of NADPH or TrxR” value is “no fluorescence was observed”. Moreover, on TrxR1 from rat liver (1-20 μM probe, 0.12 units TrxR1, 0.24 mM NADPH, 100 mM phosphate buffer pH 7.4, 20 min), the Km came out at 15.9 µM. Besides, the “Change in fluorescence with other thiols and ions compared with TrxR1” value in series [3] was “None afforded a significant change in fluorescence”. In addition, the 50% inhibitory concentration (IC50) was found to be 3530 nM with A375 melanoma cell line (24 hours); 2230 nM in the series on A375 melanoma cell line (48 hours); 2550 nM in the series with A375 melanoma cell line (72 hours); 4770 nM in series [4] (24 hours); 3100 nM in series [4] (48 hours); 2300 nM in series [4] (72 hours).

For the origin of these results see patent publication US12358923B2, “Seminaphthofluorophore-selenium probes for thioredoxin reductase” (Portland State University, priority 2019, dated 2025).
